{
  "source": "patent US6387943B1",
  "about": "“Vancoresmycin, a process for its production and its use as a pharmaceutical” (Aventis Pharma Deutschland GmbH, priority 1998, dated 2002)",
  "key": {"Ent. faecalis D 21777": {"test_system": "Ent. faecalis D 21777", "assay": "Minimum inhibitory concentration (MIC)", "type": "cell-based", "conditions": "Enterococcus faecalis, D21777"}, "Ent. faecium VR-1": {"test_system": "Ent. faecium VR-1", "assay": "Minimum inhibitory concentration (MIC)", "type": "cell-based", "conditions": "Enterococcus faecium, VR1; Ent. faecium VR-1 (resistant to vancomycin)"}, "Ent. faecium D-65": {"test_system": "Ent. faecium D-65", "assay": "Minimum inhibitory concentration (MIC)", "type": "cell-based", "conditions": "Enterococcus faecium, D65"}, "S. epidermidis 825": {"test_system": "S. epidermidis 825", "assay": "Minimum inhibitory concentration (MIC)", "type": "cell-based", "conditions": "Staphylococcus epidermidis"}, "[1]": {"test_system": "Enterococcus faecalis ATCC 29212", "assay": "Minimum inhibitory concentration (MIC)", "type": "cell-based", "conditions": "ATCC29212"}, "S. aureus 503(Mers)": {"test_system": "S. aureus 503(Mers)", "assay": "Minimum inhibitory concentration (MIC)", "type": "cell-based"}, "Ent. durans 4939H": {"test_system": "Ent. durans 4939H", "assay": "Minimum inhibitory concentration (MIC)", "type": "cell-based", "conditions": "Enterococcus durans"}, "Escherichia coli 9632": {"test_system": "Escherichia coli 9632", "assay": "Minimum inhibitory concentration (MIC)", "type": "cell-based"}, "Ent. faecalis D 26777": {"test_system": "Ent. faecalis D 26777", "assay": "Minimum inhibitory concentration (MIC)", "type": "cell-based", "conditions": "Enterococcus faecalis, D26777"}, "[2]": {"test_system": "Pseudomonas aeruginosa M35", "assay": "Minimum inhibitory concentration (MIC)", "type": "cell-based"}, "S. aureus 20424": {"test_system": "S. aureus 20424", "assay": "Minimum inhibitory concentration (MIC)", "type": "cell-based", "conditions": "Staphylococcus aureus"}, "E. coli super sen. 2231": {"test_system": "E. coli super sen. 2231", "assay": "Minimum inhibitory concentration (MIC)", "type": "cell-based", "conditions": "Escherichia coli"}, "S. aureus Wein 12": {"test_system": "S. aureus Wein 12", "assay": "Minimum inhibitory concentration (MIC)", "type": "cell-based", "conditions": "Staphylococcus aureus, WEIN12"}, "Ent. faecium P-1": {"test_system": "Ent. faecium P-1", "assay": "Minimum inhibitory concentration (MIC)", "type": "cell-based", "conditions": "Enterococcus faecium, P1"}, "S. aureus 3066": {"test_system": "S. aureus 3066", "assay": "Minimum inhibitory concentration (MIC)", "type": "cell-based", "conditions": "Staphylococcus aureus; S. aureus 3066 (resistant strain to methicillin)"}, "S. epidermidis 607": {"test_system": "S. epidermidis 607", "assay": "Minimum inhibitory concentration (MIC)", "type": "cell-based", "conditions": "Staphylococcus epidermidis"}, "Ent. faecalis D 756": {"test_system": "Ent. faecalis D 756", "assay": "Minimum inhibitory concentration (MIC)", "type": "cell-based", "conditions": "Enterococcus faecalis, D756"}, "S. warneri 6563 II (2)": {"test_system": "S. warneri 6563 II (2)", "assay": "Minimum inhibitory concentration (MIC)", "type": "cell-based", "conditions": "Staphylococcus warneri"}, "S. aureus SG511": {"test_system": "S. aureus SG511", "assay": "Minimum inhibitory concentration (MIC)", "type": "cell-based", "conditions": "Staphylococcus aureus"}, "S. aureus Brussel 4115": {"test_system": "S. aureus Brussel 4115", "assay": "Minimum inhibitory concentration (MIC)", "type": "cell-based", "conditions": "Staphylococcus aureus, BRUSSEL4115"}, "Ent. faecalis D 23241": {"test_system": "Ent. faecalis D 23241", "assay": "Minimum inhibitory concentration (MIC)", "type": "cell-based", "conditions": "Enterococcus faecalis, D23241"}, "S. epidermidis 5747 IW": {"test_system": "S. epidermidis 5747 IW", "assay": "Minimum inhibitory concentration (MIC)", "type": "cell-based", "conditions": "Staphylococcus epidermidis"}, "S. aureus E-712": {"test_system": "S. aureus E-712", "assay": "Minimum inhibitory concentration (MIC)", "type": "cell-based", "conditions": "Staphylococcus aureus, E712"}, "Ent. faecalis D 7F": {"test_system": "Ent. faecalis D 7F", "assay": "Minimum inhibitory concentration (MIC)", "type": "cell-based", "conditions": "Enterococcus faecalis, D7F"}, "S. aureus Chantot 31153": {"test_system": "S. aureus Chantot 31153", "assay": "Minimum inhibitory concentration (MIC)", "type": "cell-based", "conditions": "Staphylococcus aureus, CHANTOT31153"}, "[3]": {"test_system": "Staphylococcus aureus 209P", "assay": "Minimum inhibitory concentration (MIC)", "type": "cell-based"}, "Ent. faecium P-2": {"test_system": "Ent. faecium P-2", "assay": "Minimum inhibitory concentration (MIC)", "type": "cell-based", "conditions": "Enterococcus faecium, P2"}, "S. aureus MLS-16": {"test_system": "S. aureus MLS-16", "assay": "Minimum inhibitory concentration (MIC)", "type": "cell-based", "conditions": "Staphylococcus aureus, MLS16"}, "Ent. faecium 5601 (H)": {"test_system": "Ent. faecium 5601 (H)", "assay": "Minimum inhibitory concentration (MIC)", "type": "cell-based", "conditions": "Enterococcus faecium"}, "S. aureus E-710": {"test_system": "S. aureus E-710", "assay": "Minimum inhibitory concentration (MIC)", "type": "cell-based", "conditions": "Staphylococcus aureus, E710"}, "[4]": {"test_system": "vancomycin- and teicoplanin-resistant strains", "assay": "Antibiotic activity against resistant strains", "type": "cell-based"}, "S. aureus Wein 11": {"test_system": "S. aureus Wein 11", "assay": "Minimum inhibitory concentration (MIC)", "type": "cell-based", "conditions": "Staphylococcus aureus, WEIN11"}, "S. aureus 20240": {"test_system": "S. aureus 20240", "assay": "Minimum inhibitory concentration (MIC)", "type": "cell-based", "conditions": "Staphylococcus aureus"}, "S. haemolyticus 809": {"test_system": "S. haemolyticus 809", "assay": "Minimum inhibitory concentration (MIC)", "type": "cell-based", "conditions": "Staphylococcus haemolyticus"}, "Ent. hirae 55": {"test_system": "Ent. hirae 55", "assay": "Minimum inhibitory concentration (MIC)", "type": "cell-based", "conditions": "Enterococcus hirae"}, "S. epidermidis 823": {"test_system": "S. epidermidis 823", "assay": "Minimum inhibitory concentration (MIC)", "type": "cell-based", "conditions": "Staphylococcus epidermidis"}, "[5]": {"assay": "Solubility (physico-chemical properties)", "type": "physicochemical", "conditions": "solvents in which soluble"}},
  "data": [
    {"compound": "C/C(=C\\CC(O)CC(O)CCC(C)C(O)C(C)C(O)CCCC(O)C(C)C(O)/C(C)=C/C(C)C(=O)/C(C)=C/C(O)C(O)CC(O)CC(OC1OC(C)C(O)C(N)C1O)C(C)CCC(O)CC(O)CCC(C)C(O)C(C)C(O)C(C)C)C(=O)C1=C(O)/C(=C/C(C)C)N(C)C1=O", "note": "(stereo not shown) [Vancoresmycin]", "values": [
      {"measurement": "MIC", "setting": "Ent. faecalis D 21777", "result": 0.39, "unit": "µg/mL"},
      {"measurement": "MIC", "setting": "Ent. faecium VR-1", "result": 0.39, "unit": "µg/mL"},
      {"measurement": "MIC", "setting": "Ent. faecium D-65", "result": 0.39, "unit": "µg/mL"},
      {"measurement": "MIC", "setting": "S. epidermidis 825", "result": 0.1, "unit": "µg/mL"},
      {"measurement": "MIC", "setting": "[1]", "result": 0.39, "unit": "µg/mL"},
      {"measurement": "MIC", "setting": "S. aureus 503(Mers)", "result": 0.025, "unit": "µg/mL"},
      {"measurement": "MIC", "setting": "Ent. durans 4939H", "result": 0.39, "unit": "µg/mL"},
      {"measurement": "MIC", "setting": "Escherichia coli 9632", "result": "> 100", "unit": "µg/mL"},
      {"measurement": "MIC", "setting": "Ent. faecalis D 26777", "result": 0.39, "unit": "µg/mL"},
      {"measurement": "MIC", "setting": "[2]", "result": "> 100", "unit": "µg/mL"},
      {"measurement": "MIC", "setting": "S. aureus 20424", "result": 0.1, "unit": "µg/mL"},
      {"measurement": "MIC", "setting": "E. coli super sen. 2231", "result": "> 100", "unit": "µg/mL"},
      {"measurement": "MIC", "setting": "S. aureus Wein 12", "result": 0.05, "unit": "µg/mL"},
      {"measurement": "MIC", "setting": "Ent. faecium P-1", "result": 0.39, "unit": "µg/mL"},
      {"measurement": "MIC", "setting": "S. aureus 3066", "result": 0.1, "unit": "µg/mL"},
      {"measurement": "MIC", "setting": "S. epidermidis 607", "result": 0.1, "unit": "µg/mL"},
      {"measurement": "MIC", "setting": "Ent. faecalis D 756", "result": 0.39, "unit": "µg/mL"},
      {"measurement": "MIC", "setting": "S. warneri 6563 II (2)", "result": 0.1, "unit": "µg/mL"},
      {"measurement": "MIC", "setting": "S. aureus SG511", "result": 0.05, "unit": "µg/mL"},
      {"measurement": "MIC", "setting": "S. aureus Brussel 4115", "result": 0.05, "unit": "µg/mL"},
      {"measurement": "MIC", "setting": "Ent. faecalis D 23241", "result": 0.39, "unit": "µg/mL"},
      {"measurement": "MIC", "setting": "S. epidermidis 5747 IW", "result": 0.1, "unit": "µg/mL"},
      {"measurement": "MIC", "setting": "S. aureus E-712", "result": 0.1, "unit": "µg/mL"},
      {"measurement": "MIC", "setting": "Ent. faecalis D 7F", "result": 0.39, "unit": "µg/mL"},
      {"measurement": "MIC", "setting": "S. aureus Chantot 31153", "result": 0.05, "unit": "µg/mL"},
      {"measurement": "MIC", "setting": "[3]", "result": 0.05, "unit": "µg/mL"},
      {"measurement": "MIC", "setting": "Ent. faecium P-2", "result": 0.39, "unit": "µg/mL"},
      {"measurement": "MIC", "setting": "S. aureus MLS-16", "result": 0.39, "unit": "µg/mL"},
      {"measurement": "MIC", "setting": "Ent. faecium 5601 (H)", "result": 0.39, "unit": "µg/mL"},
      {"measurement": "MIC", "setting": "S. aureus E-710", "result": 0.1, "unit": "µg/mL"},
      {"measurement": "antibiotic activity", "setting": "[4]", "result": "active"},
      {"measurement": "MIC", "setting": "S. aureus Wein 11", "result": 0.05, "unit": "µg/mL"},
      {"measurement": "MIC", "setting": "S. aureus 20240", "result": 0.05, "unit": "µg/mL"},
      {"measurement": "MIC", "setting": "S. haemolyticus 809", "result": 0.05, "unit": "µg/mL"},
      {"measurement": "MIC", "setting": "Ent. hirae 55", "result": 0.39, "unit": "µg/mL"},
      {"measurement": "MIC", "setting": "S. epidermidis 823", "result": 0.2, "unit": "µg/mL"},
      {"measurement": "Solubility", "setting": "[5]", "result": "Methanol, DMSO"}
    ]}
  ]
}
